Here are results for one molecule from US9757350B2, “Small molecule inhibitors of replication protein A that also act synergistically with cisplatin” (Indiana University Research and Technology Corp., priority 2010, dated 2017).

Common to all, as to assay type: cell-based
The test system of assay [1] is H1299 cells. The assay can be described thus: Cell cycle analysis by PI staining, H1299. Particulars: 6, 12 and 24 hours of treatment. As for the experimental part:
Cell cycle analysis was also performed on the three lung cancer cell lines using PI staining to identify the potential arrest resulting from treatment with SMIs. […] Adherent and non-adherent cells were collected, washed twice with PBS containing 2% bovine serum albumin (BSA), resuspended in 70% cold EtOH and incubated overnight at −20° C. Cells were again collected and stained with PI (1 μg/mL) and RNaseA (25 μg/mL) for 30 min. at 37° C. followed by 1.5 hours at 4° C. in the dark. Flow cytometry was performed as above and data were analyzed on a histogram with events plotted against the FL2-A parameter. Cell cycle distribution was analyzed using the ModFit software and data presented represents three independent trials.

The subject of assay [2] is RPA. The assay can be described thus: Western blot of endogenous RPA34 levels. Particulars: western blot for RPA34. The method, then: Referring now to FIG. 18. Blot showing Endogenous Levels of RPA. Each cell line analyzed were plated (3×10^6) in 10 cm dishes and allowed to adhere overnight. Following a 5 ml PBS wash the cells were scraped into 100 μl of RIPA buffer. Cell extracts (40 μg) were loaded onto 10% SDS-PAGE gels, transferred to nitrocellulose membranes and probed for the presence of RPA34. Purified RPA was used as a positive control while GAPDH was probed for a loading control.
In general terms: A western blot detects proteins with antibodies after separation by electrophoresis.

Assay [3] concerns NSCLC cell lines A549 and H460. Briefly: Apoptosis by Annexin V/PI staining, NSCLC cell lines. Particulars: 48 hours. As for the experimental part:
Referring now to FIG. 11A. Gel showing effect of MCI13E on DNA-RPA binding. […] Cytotoxicity was analyzed via crystal violet analysis as described in “methods” 48 hours following MCI13E treatment. Data represent the average and standard deviation of four replicate experiments with each replicate containing triplicate determinations and the circles represent data from H460 cells and squares A549 cells. Referring now to FIG. 11C. Graph of MCI13E induced death via apoptosis in NSCLC cell lines. Cell were treated with the indicated concentrations of MCI13E for 48 hours and analyzed for the induction of apoptosis via Annexin V/PI staining Referring now to FIG. 11D. Graph of cell survival as a function of [MCI1EC]. Percent survival was calculated for each cell line using untreated cells as a control. […]
Flow Cytometry—After determining the SMI cytotoxicity, H460, A549 and H1299 lung cancer cell lines were analyzed for apoptosis using the Annexin V-FITC/Propidium Iodide (PI) Vybrant® Apoptosis Assay kit (Invitrogen, Gaithersburg, Md.). […] Following treatment, both adherent and non-adherent cells were collected, processed via the manufacturer's protocol (Invitrogen) and analyzed on a FACScan flow cytometer (Becton Dickson, San Jose, Calif.). Data was analyzed using WinDMI software (The Scripps Research Institute, Can Diego, Calif.) and results are presented as a percentage of control (untreated cells).

Assay [4] has as its system A549 cells. The assay can be described thus: Cell cycle analysis by PI staining, A549. The note with it: A549, increasing doses. The method, then: (§1) Referring now to FIG. 12A and FIG. 12B. Cell Cycle Analysis of Lung Cancer Cell Lines Following Treatment with MCI13E. A549. Referring now to FIG. 12C, and FIG. 12D. H460 were treated as indicated and analyzed for the cell cycle distribution using PI staining and flow cytometry. Quantification of data following 6 hours and 12 hour treatment with 10 and 20 μM MCI13E was performed for both A549 (FIG. 12E) and H460 (FIG. 12F) Data presented represent the averages of three replicate experiments.
(§2) Cell cycle analysis was also performed on the three lung cancer cell lines using PI staining to identify the potential arrest resulting from treatment with SMIs. Briefly, cells were plated in 6-well dishes (2×10^5 cells total) and treated for 6 or 12 hours with increasing concentration of inhibitor. Adherent and non-adherent cells were collected, washed twice with PBS containing 2% bovine serum albumin (BSA), resuspended in 70% cold EtOH and incubated overnight at −20° C. Cells were again collected and stained with PI (1 μg/mL) and RNaseA (25 μg/mL) for 30 min. at 37° C. followed by 1.5 hours at 4° C. in the dark. Flow cytometry was performed as above and data were analyzed on a histogram with events plotted against the FL2-A parameter. Cell cycle distribution was analyzed using the ModFit software and data presented represents three independent trials.

Assay [5] deals with H460 cells. The assay can be described thus: Cell cycle analysis by PI staining, H460. The note with it: H460, increasing doses. As for the experimental part:
as §1, §2

Assay [6] relates to H1299 cells. Briefly: Apoptosis by Annexin V/PI staining, H1299. The note with it: H1299, Annexin V and propidium iodine staining. The method, then: Referring now to FIG. 13A. Cell Viability and Apoptosis of Ovarian and p53 null Lung Cancer Cell Lines. A) Ovarian cancer cell line A2780 and the p53 null lung cancer cell line, H1299, were treated with log dosing of MCI13E and viability analyzed via CCK-8 metabolic assay as described in Methods. Data is presented as cell survival which was determined as a percent of the untreated control cells and represents the average and standard deviation of triplicate experiments Referring now to FIG. 13B.
Flow Cytometry—After determining the SMI cytotoxicity, H460, A549 and H1299 lung cancer cell lines were analyzed for apoptosis using the Annexin V-FITC/Propidium Iodide (PI) Vybrant® Apoptosis Assay kit (Invitrogen, Gaithersburg, Md.). Cells were plated in 6-well dishes (2×10^5 cells total), treated for 24 (H1299) or 48 (H460 and A549) hours with increasing concentrations of SMI. Following treatment, both adherent and non-adherent cells were collected, processed via the manufacturer's protocol (Invitrogen) and analyzed on a FACScan flow cytometer (Becton Dickson, San Jose, Calif.). Data was analyzed using WinDMI software (The Scripps Research Institute, Can Diego, Calif.) and results are presented as a percentage of control (untreated cells).

With `CC1(C)C2CCC1(C)C(OC(=O)CBr)C2` (racemic) [MCI13E, (+/−)-Isobornyl bromoacetate], the Cell cycle distribution result in assay [1] is reported as “increased percentage of cells accumulated in S-phase”; in assay [4] it was “greater proportion of cells in the G1 phase”; in assay [5], “increase in the proportion of cells in S-phase”. In assay [2], the “Levels of endogenous RPA” value is recorded as “No change in the levels of endogenous RPA”. Moreover, the “Mode of cell death” value in assay [3] is on record as “induces death via classical apoptosis”. Also, in assay [6], the Induction of apoptosis entry is recorded as “indicative of the induction of apoptosis”.
